This is an account of results in patent publication US7759362B2, “Quinolonecarboxylic acid compounds, preparation methods and pharmaceutical uses thereof” (Institut of Medicinal Biotechnology Chinese Academy of …, priority 2004, dated 2010).

SMILES strings stand for the structures. Converted amounts (≈) assume the structure as drawn.

The subject of data set [1] is K. pneumoniae 7. Put plainly: MIC, two-fold plate dilution method. It is filed as cell-based. The following applies: K. pneumoniae 7, Gram-negative; Muener-Hinton medium. The source says:
(§1) . The pharmaceutically acceptable salts or hydrates thereof have the same antibacterial activity.
(§2) Two-fold plate dilution method is used for determination of activity, with Muener-Hinton medium (DIFCO) as the culture medium and clinically isolated pathogenic strain, quality control strain and standard strain (provided by National Institute for the Control of Pharmaceutical and Biological Products) as test strains.

Data set [2] relates to S. epidermidis 26069. Put plainly: MIC, two-fold plate dilution method. The data set is classed as cell-based. The following applies: S. epidermidis 26069, Gram-positive; Muener-Hinton medium.
Excerpt: as §1, §2

Data set [3] relates to S. pyogenes 26. Put plainly: MIC, two-fold plate dilution method. The data set is classed as cell-based. Particulars: S. pyogenes 26, Gram-positive; Muener-Hinton medium.
Excerpt: as §1, §2

The subject of data set [4] is E. coli ATTC 25922. Description: MIC, two-fold plate dilution method. It is filed as cell-based. Particulars: E. coli ATTC 25922, Gram-negative; Muener-Hinton medium.
Excerpt: as §1, §2

For data set [5], the system named is E. coli 26. Put plainly: MIC, two-fold plate dilution method. Particulars: E. coli 26, Gram-negative; Muener-Hinton medium. The data set is classed as cell-based.
Excerpt: as §1, §2

Data set [6] concerns S. pneumoniae 98. Description: MIC, two-fold plate dilution method. It is filed as cell-based. The following applies: S. pneumoniae 98, Gram-positive; Muener-Hinton medium.
Excerpt: as §1, §2

Data set [7] deals with K. pneumoniae 14. Description: MIC, two-fold plate dilution method. Particulars: K. pneumoniae 14, Gram-negative; Muener-Hinton medium. It is filed as cell-based.
Excerpt: as §1, §2

Data set [8] has as its system S. pneumoniae 70. Put plainly: MIC, two-fold plate dilution method. The data set is classed as cell-based. The following applies: S. pneumoniae 70, Gram-positive; Muener-Hinton medium.
Excerpt: as §1, §2

In data set [9] the test system is Enterococcus 755. Description: MIC, two-fold plate dilution method. It is filed as cell-based. Particulars: Enterococcus 755, Gram-positive; Muener-Hinton medium.
Excerpt: as §1, §2

In data set [10] the test system is P. aeruginosa 17. Put plainly: MIC, two-fold plate dilution method. The following applies: P. aeruginosa 17, Gram-negative; Muener-Hinton medium. The data set is classed as cell-based.
Excerpt: as §1, §2

Data set [11] relates to S. aureus ATTC 25923. Put plainly: MIC, two-fold plate dilution method. It is filed as cell-based. Particulars: S. aureus ATTC 25923, Gram-positive; Muener-Hinton medium.
Excerpt: as §2

Data set [12] is described as follows: Acute oral toxicity in mice. Particulars: mouse, in vivo, male mice, deaths after 7 days, Bliss program. The procedure: Toxicity experiments are carried out on the compounds prepared in embodiment 11, 13 and 15 to determine the acute oral toxicity of the present compounds. Solutions of the three compounds in different concentrations are administered to male mice at a dosage of 0.1 mL/10 g body weight, then the number of dead mice after 7 days is recorded, and lethal dose 50% (LD50) is calculated for each compound by Bliss program.

The subject of data set [13] is S. pneumoniae. Particulars: compared with gatifloxacin; cited from earlier work.

For orientation: MIC means the least concentration at which growth counts as inhibited. For orientation: LD50 means the dose at which mortality reaches 50%. For `Cl.O=C(O)c1cn(C2CC2)c2c(OC(F)F)c(N3C[C@@H]4CCCN[C@@H]4C3)c(F)cc2c1=O` (relative stereo) [Embodiment 15, 1-Cyclopropyl-8-difluoromethoxyl-7-[cis-2,8-diazabicyclo[4,3,0]nonane-8-yl]-6-fluoro-1,4-dihydro-4-oxoquinoline-3-carboxylic acid hydrochloride], the MIC was determined as 0.03 µg/mL in data set [1]; 0.5 µg/mL in data set [2]; 0.25 µg/mL in data set [3]; 0.25 µg/mL in data set [4]; 0.03 µg/mL in data set [5]; 0.125 µg/mL in [6]. Further, the MIC in [7] turned out to be 0.03 µg/mL; in [8] it was 0.06 µg/mL; in data set [9] it was 0.25 µg/mL; in data set [10], 0.5 µg/mL; in data set [11], 0.125 µg/mL. Besides, the LD50 at 7 days in [12] was above 4000 mg/kg.

For `Nc1c(F)c(N2C[C@@H]3CCCN[C@@H]3C2)c(OC(F)F)c2c1c(=O)c(C(=O)O)cn2C1CC1` (relative stereo) [Embodiment 21, 5-Amino-1-cyclopropyl-8-difluoromethoxyl-7-(cis-2,8-diazabicyclo[4,3,0]nonane-8-yl)-6-fluoro-1,4-dihydro-4-oxoquinoline-3-carboxylic acid], the MIC in data set [1] is 0.015 µg/mL (≈ 0.0332 µM); in [2], 0.25 µg/mL (≈ 0.553 µM); in data set [3], 0.25 µg/mL (≈ 0.553 µM); in [4], below 0.007 µg/mL; in data set [5] it was below 0.007 µg/mL; in [6] it was 0.03 µg/mL (≈ 0.0663 µM). Further, the MIC in [7] was determined as 0.015 µg/mL (≈ 0.0332 µM); in data set [8] it was 0.06 µg/mL (≈ 0.133 µM); in data set [9], 0.25 µg/mL (≈ 0.553 µM); in [10], 0.25 µg/mL (≈ 0.553 µM); in data set [11], 0.03 µg/mL (≈ 0.0663 µM).

Regarding `O=C(O)c1cn(C2CC2)c2cc(N3CCNCC3)c(F)cc2c1=O` [Ciprofloxacin, ciprofloxacin, reference compound], the MIC in data set [1] is on record as 0.015 g/mL.

`Cl.O=C(O)c1cn(C2CC2)c2c(OC(F)F)c(N3C[C@@H]4CCCN[C@@H]4C3)c(F)cc2c1=O` [Embodiment 13, 1-cyclopropyl-8-difluoromethoxyl-7-[(1S,6S)-2,8-diazabicyclo[4,3,0]nonane-8-yl]-6-fluoro-1,4-dihydro-4-oxoquinoline-3-carboxylic acid hydrochloride]: the MIC was determined as 0.015 µg/mL in [1]; 0.25 µg/mL in data set [2]; 0.25 µg/mL in data set [3]; 0.015 µg/mL in [4]; 0.015 µg/mL in data set [5]; 0.015 µg/mL in [6]. Besides, the MIC was 0.015 µg/mL in data set [7]; 0.125 µg/mL in [8]; 0.25 µg/mL in data set [9]; 0.25 µg/mL in data set [10]; 0.03 µg/mL in data set [11]. This molecule also had an LD50 at 7 days in data set [12] above 4000 mg/kg.

Consider `Cl.O=C(O)c1cn(C2CC2)c2c(OC(F)F)c(N3C[C@H]4CCCN[C@H]4C3)c(F)cc2c1=O` [Embodiment 14, 1-cyclopropyl-8-difluoromethoxyl-7-[(1R,6R)-2,8-diazabicyclo[4,3,0]nonane-8-yl]-6-fluoro-1,4-dihydro-4-oxoquinoline-3-carboxylic acid hydrochloride], for which the MIC in [1] was 0.03 µg/mL; in data set [2], 0.5 µg/mL; in data set [3], 0.5 µg/mL; in data set [4], 0.015 µg/mL; in data set [5] it was 0.03 µg/mL; in data set [6], 0.015 µg/mL. Also, the MIC in data set [7] turned out to be 0.03 µg/mL; in [8], 0.06 µg/mL; in data set [9] it was 0.25 µg/mL; in [10], 1 µg/mL; in data set [11], 0.03 µg/mL.

Take `Cl.Nc1c(F)c(N2C[C@@H]3CCCN[C@@H]3C2)c(OC(F)F)c2c1c(=O)c(C(=O)O)cn2C1CC1` [Embodiment 17, 5-amino-1-cyclopropyl-8-difluoromethoxyl-7-[(1S,6S)-2,8-diazabicyclo[4,3,0]nonane-8-yl]-6-fluoro-1,4-dihydro-4-oxoquinoline-3-carboxylic acid hydrochloride]: the MIC in data set [1] was 0.015 µg/mL; in [2], 0.25 µg/mL; in data set [3], 0.25 µg/mL; in [4], 0.051 µg/mL; in data set [5], 0.015 µg/mL; in data set [6], 0.015 µg/mL. In addition, the MIC was found to be 0.015 µg/mL in data set [7]; 0.015 µg/mL in data set [8]; 0.015 µg/mL in data set [9]; 0.25 µg/mL in data set [10]; 0.03 µg/mL in data set [11]. In data set [12], this molecule registered an LD50 at 7 days above 4000 mg/kg.

`Cl.Nc1c(F)c(N2C[C@H]3CCCN[C@H]3C2)c(OC(F)F)c2c1c(=O)c(C(=O)O)cn2C1CC1` [Embodiment 18, 5-Amino-1-cyclopropyl-8-difluoromethoxyl-7-[(1R,6R)-2,8-diazabicyclo[4,3,0]nonane-8-yl]-6-fluoro-1,4-dihydro-4-oxoquinoline-3-carboxylic acid hydrochloride]: the MIC in data set [1] came to 0.015 µg/mL; in data set [2], 0.25 µg/mL; in data set [3], 0.25 µg/mL; in data set [4], 0.015 µg/mL; in [5], 0.015 µg/mL; in data set [6] it was 0.125 µg/mL. The MIC in data set [7] came out at 0.015 µg/mL; in data set [8], 0.03 µg/mL; in data set [9] it was 0.06 µg/mL; in data set [10], 0.25 µg/mL; in data set [11], 0.06 µg/mL.

Turning to `C[C@H]1NCc2cc(-c3ccc4c(=O)c(C(=O)O)cn(C5CC5)c4c3OC(F)F)ccc21` [Embodiment T-3811], the “in vitro activity against S. pneumoniae (in words)” value in data set [13] is listed as “enhanced in vitro activity against S. pneumoniae, even superior to gatifloxacin”.

Turning to `COc1c(N2C[C@@H]3CCCN[C@@H]3C2)c(F)cc2c(=O)c(C(=O)O)cn(C3CC3)c12` [Moxifloxacin, moxifloxacin, reference compound], the MIC in data set [1] was 0.03 µg/mL (≈ 0.0747 µM); in [2] it was 0.5 µg/mL (≈ 1.25 µM); in data set [3], 0.5 µg/mL (≈ 1.25 µM); in [4] it was 0.03 µg/mL (≈ 0.0747 µM); in [5] it was 0.03 µg/mL (≈ 0.0747 µM); in data set [6] it was 0.125 µg/mL (≈ 0.311 µM). Besides, the minimum inhibitory concentration (MIC) stood at 0.03 µg/mL (≈ 0.0747 µM) in data set [7]; 0.125 µg/mL (≈ 0.311 µM) in data set [8]; 0.5 µg/mL (≈ 1.25 µM) in data set [9]; 0.5 µg/mL (≈ 1.25 µM) in data set [10]; 0.06 µg/mL (≈ 0.149 µM) in data set [11].
